# Measured values reported in article PMC10177380 (Cancers, 2023).
# Read-outs that look alike come from different tables or passages of the source.
# Legend:
# HT29 colon cells = assay: Mitochondrial membrane potential, TMRE-MtMP assay; type: cell-based, human; conditions: treatment at GI50 concentration (FCCP positive control 20 μM)
# Source text: To study the MtMP changes in treated cells, a TMRE-MtMP Assay Kit (Abcam, Cambridge, MA, USA) was used (see Supplementary Materials).
# TMRE was used to stain HT29 colon cells, and treatment with the complexes and ligands was completed at each specific GI50 concentration. The MtMP changes detected are expressed as RFU. Additionally, lower RFU values correspond to a decline in mitochondrial activity. […]
# dimethylthiazol-2-yl]-2,5-diphenyltetrazolium bromide) assay and absorbance was read at 540 nm. An eight-point dose response curve was produced from which the GI50 value was calculated, representing the drug concentration at which cell growth was inhibited by 50% based on the difference between the optical density values on day 0 and those at the end of drug exposure. […]
# 5. Mitochondrial Membrane Potential (MtMP)
# In 96-well plates, 25,000 cells/mL of HT29 colon cells in DMEM were seeded. Cells were treated with a GI50 drug concentration for each complex. […]
# washed with PBS and stained with 1 μM tetramethylrhodamine, ethyl ester (TMRE) and incubated for 30 min. TMRE was then removed, and cells were then re-washed with PBS (0.2% BSA), after which phenol red free media was added. The plates were directly scanned to measure fluorescence (expressed as RFU), using the Glo-Max®-Multimode […]
# microplate reader (Promega Corporation, Alexandra, VIC, Australia) at an […]
# For the positive control, 20 μM carbonyl cyanide 4-(trifluoromethoxy) phenylhydrazone (FCCP)) was added to the cells and incubated for 10 min. The cells were washed with PBS (0.2% BSA) and stained with TMRE (1 μM) for 30 min; this was removed and phenol red free media was added, and the final solution was scanned as mentioned above. […]
# MCF7 breast = assay: MTT growth inhibition, 72 h, MCF7; type: cell-based; conditions: for GI50: MCF7, MTT, 72 h
# COX-2 (human) = target: T1, COX-2 (human) (Homo sapiens, UniProt P35354); assay: COX-2 (human) Inhibitor Screening Assay Kit (ELISA); type: biochemical; parameters: concentration or dose not given beside the values
# T1 construct: purchased Cayman Chemical Item No. 701080
# T1 sequence (P35354 18-604): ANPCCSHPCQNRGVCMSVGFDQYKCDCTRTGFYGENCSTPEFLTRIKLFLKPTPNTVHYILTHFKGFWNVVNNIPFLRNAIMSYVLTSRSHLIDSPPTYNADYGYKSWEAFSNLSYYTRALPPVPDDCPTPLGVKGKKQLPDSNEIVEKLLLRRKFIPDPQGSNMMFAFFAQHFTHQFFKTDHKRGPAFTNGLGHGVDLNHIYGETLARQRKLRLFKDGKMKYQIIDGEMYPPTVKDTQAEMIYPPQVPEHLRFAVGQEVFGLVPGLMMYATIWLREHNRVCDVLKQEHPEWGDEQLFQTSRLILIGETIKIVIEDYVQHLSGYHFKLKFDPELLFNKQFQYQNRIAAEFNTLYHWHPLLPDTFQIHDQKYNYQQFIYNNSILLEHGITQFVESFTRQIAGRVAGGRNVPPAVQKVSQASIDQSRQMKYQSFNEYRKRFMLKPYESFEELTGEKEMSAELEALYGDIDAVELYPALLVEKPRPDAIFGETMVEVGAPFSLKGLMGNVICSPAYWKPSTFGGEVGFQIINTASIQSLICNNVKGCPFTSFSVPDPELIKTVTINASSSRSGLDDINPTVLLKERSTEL
# Source text: NSAIDs are well recognised as inhibitors of the COX enzymes, COX-1 and COX-2 [37, 42, 45]. […] COX-1 is typically expressed in most tissues and is associated with normal physiological functions, particularly by maintaining prostaglandin production at basal levels. In contrast, COX-2 is involved in the excessive production of prostaglandin during inflammation (or hypoxia), and extensive studies have shown that COX-2 resultant prostaglandins are overexpressed in tumours. […] To explore the COX-2 inhibitory properties of the studied complexes (1–6), ELISA was used against the COX-2 enzyme. […]
# 6. Cyclooxygenase-2 (COX-2) Inhibition
# The standards, samples and assay preparation, and completion were achieved as instructed by the manufacturer. The assay necessitated three steps, being the standards preparation, the COX reaction, and the enzyme immunoassay. The standards were prepared in 2-fold serial dilution of the prostaglandin F2α enzyme-linked immunosorbent assay (ELISA) standard starting at 500 pg/mL to 3.9 pg/mL in ELISA buffer (1X). The COX reaction dilution preparation for the background samples included the addition of background COX-2 (20 μL), which was inactivated in boiling water for 3 min. The background values were generated by adding 10 μL of the inactivated COX-2, 160 μL of the reaction buffer (1X), 10 μL of heme and 10 μL of DMSO (inhibitor vehicle). The COX reaction dilution preparation for the COX-2 100% initial activity samples included the addition 160 μL of the reaction buffer (1X), 10 μL of heme, 10 μL of COX-2 and 10 μL of DMSO (inhibitor vehicle). The COX reaction dilution preparation for the COX-2 inhibitor samples included the addition of 160 μL of the reaction buffer (1X), 10 μL of heme, 10 μL […]
# The reaction was then initiated by the addition of 10 μL of arachidonic acid and potassium hydroxide solution (1:1), and […]
# enzyme catalysis. The tubes were then vortexed and incubated for 5 min at room […]
# temperature. The background samples were diluted with ELISA buffer (1X) 1:100 times […]
# and the COX-2 100% initial activity and COX-2 inhibitor samples were diluted 1:2000 and […]
# 1:4000 times. For the enzyme immunoassay, 100 μL of the ELISA buffer (1X) was added […]
# to non-specific binding wells (NSBs), 50 μL of the ELISA buffer (1X) was added to […]
# maximum binding wells (B0) and 50 μL of each prostaglandin F2α standard was added to […]
# standard wells in duplicates. 50 μL of background sample and 50 μL of COX-2 100% […]
# initial activity samples were independently added to the wells in duplicates. Inhibitor […]
# samples (50 μL) being investigated were added to the wells in triplicates. Prostaglandin […]
# F2α acetyl-cholinesterase (AChE) tracer (50 μL) was added to all wells but the total […]
# activity well and blank wells. Prostaglandin F2α ELISA antiserum (50 μL) was added to […]
# each well but the total activity well, NSBs and blank wells. The plate was then covered […]
# with a plastic seal and incubated overnight at room temperature on an orbital shaker. The […]
# wells were then washed five times using kit wash buffer (1X). Ellman’s reagent (200 μL) […]
# was then added to each well, as well as 5 μL of the AChE tracer into the total activity […]
# well. The plate was then covered with the plastic seal, placed on an orbital shaker in the […]
# dark to develop for 2 hours at room temperature. […]
# nm using the SpectraMax M2 series multi-mode microplate reader (Molecular Devices, […]
Structure (SMILES),"MtMP Changes (HT29 colon cells; HT29, 24 h) [RFU]","MtMP Changes (HT29 colon cells; HT29, 48 h) [RFU]","MtMP Changes (HT29 colon cells; HT29, 72 h) [RFU]",GI50 (MCF7 breast; Homo sapiens) [nM],Percentage COX-2 Inhibitory Activity (COX-2 (human)) [%],GI50 (MCF7 breast) [nM],fold decrease of GI50 relative to the platinum(IV) scaffold (MCF7 breast) [fold],Percentage COX-2 Inhibitory Activity (COX-2 (human); 72 h) [%]
"COc1ccc2c(c1)c(CC(=O)OCC(=O)O)c(C)n2C(=O)c1ccc(Cl)cc1 [ACE, acemetacin]",494 ± 6,371 ± 10,295 ± 13,> 50000,76 ± 8,,,
"N.N.[Cl][Pt][Cl] [Cisplatin, cis-diamminedichloroplatinum(II)]",256 ± 9,236 ± 13,199 ± 11,,9 ± 2,,,
"COc1ccc2cc([C@H](C)C(=O)[O][Pt+2]3([OH])[N]4C=CC=c5ccc6c(c54)[N]3C=CC=6)ccc2c1.N[C@H]1CCCC[C@@H]1N [Complex 1, [Pt^IV(phen)(SS-DACH)(NPX)(OH)]^2+]",382 ± 11,211 ± 12,163 ± 5,,55 ± 3,1120 ± 342,,
"COc1ccc2cc([C@H](C)C(=O)[O][Pt+2]3([OH])[N]4C=CC=c5cc(C)c6c(c54)[N]3C=CC=6)ccc2c1.N[C@H]1CCCC[C@@H]1N (stereo partly drawn) [Complex 2, [Pt^IV(5-Mephen)(SS-DACH)(NPX)(OH)]^2+]",368 ± 9,160 ± 13,130 ± 7,,44 ± 6,720 ± 240,,
"COc1ccc2cc([C@H](C)C(=O)[O][Pt+2]3([OH])[N]4C=CC=c5c(C)c(C)c6c(c54)[N]3C=CC=6)ccc2c1.N[C@H]1CCCC[C@@H]1N [Complex 3, [Pt^IV(5,6-Me2phen)(SS-DACH)(NPX)(OH)]^2+]",351 ± 5,152 ± 8,104 ± 6,,37 ± 4,60 ± 22,,
"COc1ccc2c(c1)c(CC(=O)OCC(=O)[O][Pt-2]13([OH])([NH2+][C@H]4CCCC[C@@H]4[NH2+]1)[n+]1cccc4ccc5ccc[n+]3c5c41)c(C)n2C(=O)c1ccc(Cl)cc1 [Complex 4, [Pt^IV(phen)(SS-DACH)(ACE)(OH)]^2+]",416 ± 8,343 ± 8,184 ± 5,,48 ± 3,840 ± 390,19,
"COc1ccc2c(c1)c(CC(=O)OCC(=O)[O][Pt-2]13([OH])([NH2+][C@H]4CCCC[C@@H]4[NH2+]1)[n+]1cccc4cc(C)c5ccc[n+]3c5c41)c(C)n2C(=O)c1ccc(Cl)cc1 [Complex 5, [Pt^IV(5-Mephen)(SS-DACH)(ACE)(OH)]^2+]",412 ± 4,284 ± 12,140 ± 5,,36 ± 2,39 ± 18,,
Cc1cc2c3c4c1=CC=C[N]4[Pt+2][N]3C=CC=2.N[C@H]1CCCC[C@@H]1N [Complex 5MESS],210 ± 15,204 ± 6,144 ± 5,,6 ± 3,,,
"COc1ccc2c(c1)c(CC(=O)OCC(=O)[O][Pt-2]13([OH])([NH2+][C@H]4CCCC[C@@H]4[NH2+]1)[n+]1cccc4c(C)c(C)c5ccc[n+]3c5c41)c(C)n2C(=O)c1ccc(Cl)cc1 [Complex 6, [Pt^IV(5,6-Me2phen)(SS-DACH)(ACE)(OH)]^2+]",387 ± 7,284 ± 11,112 ± 8,,32 ± 3,12 ± 6,,
"Cc1c(C)c2cccnc2c2ncccc12.N[C@H]1CCCC[C@@H]1N.[Pt] [Complex 56MESS, [Pt^II(5,6-Me2phen)(SS-DACH)]^2+]",156 ± 10,162 ± 13,103 ± 7,,5 ± 4,,,
"COc1ccc2cc([C@H](C)C(=O)O)ccc2c1 [NPX, naproxen]",499 ± 10,397 ± 13,304 ± 9,> 50000,,,,83 ± 5
C1=C[N]2[Pt+2][N]3C=CC=c4ccc(c2c43)=C1.N[C@H]1CCCC[C@@H]1N [PHENSS],289 ± 17,271 ± 15,237 ± 10,,8 ± 4,,,
